From patent US20250195530A1, “POLQ INHIBITORS” (ASTRAZENECA AB, priority 2022, published 2025) come the findings set out here.

The subject of the first assay is DLD-1 BRCA2−/− cells. Nature of the assay: Homologous recombination synthetic lethal inhibition of proliferation, DLD-1 BRCA2-/- (Cell Titre Glo 3D). It is filed as cell-based. The settings on record: DLD-1 BRCA2-/- proliferation; column head only partly shown. In outline: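 DLD-1 BRCA2−/− (3,000 cells/mL) and parental DLD-1 (1,500 cells/mL) cells in phenol red-free RPMI 1640 with 10% FBS were exposed to a 10-point, three-fold compound series from 10 μM to 0.51 nM at 37 °C, 5% CO2. Medium and compound were replenished on day 6. CellTiter-Glo 3D luminescence was read on day 7 (DLD-1) or day 12 (BRCA2−/−), and IC50 was taken as 50% reduction of maximum signal.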
As for `CC1(Oc2ncnc3c2nc(-c2cccc(O[C@H]4C[C@@H](C(=O)O)C4)c2Cl)n3Cc2cccc(Cl)c2)CC1` [Example T257, (1s,3s)-3-(2-chloro-3-(9-(3-chlorobenzyl)-6-(1-methylcyclopropoxy)-9H-purin-8-yl)phenoxy)cyclobutane-1-carboxylic acid], the “POLQ PD Prolif Lumin” value was 7.

Staying with this assay, now noted: Homo sapiens, DLD-1, DLD-1 BRCA2-/- proliferation; column head only partly shown; read-out: POLQ PD Prolif Lumin (converted).
As to `CC(CCOc1ccc(-c2nc3c(OC4(C)CC4)ncnc3n2Cc2cc(F)cc(Cl)c2)c(Cl)c1)C(=O)O` (single isomer, unassigned) [Example T272, 4-(3-chloro-4-(9-(3-chloro-5-fluorobenzyl)-6-(1-methylcyclopropoxy)-9H-purin-8-yl)phenoxy)-2-methylbutanoic acid], the IC50 is 200 nM.
`Cc1ccnc(Cn2c(-c3ccc(C(=O)NC4CC(F)C4)cc3Cl)nc3c(OC4(C)CC4)ncnc32)c1` (centres unmarked) [Example T280, 3-chloro-N-(3-fluorocyclobutyl)-4-(6-(1-methylcyclopropoxy)-9-((4-methylpyridin-2-yl)methyl)-9H-purin-8-yl)benzamide]: the IC50 was 794 nM.
Still for that read-out and setting: then `CCC(C)c1ccc(-c2nc3c(OC4(C)CC4)ncnc3n2Cc2cc(C)ccn2)c(Cl)c1` (racemic) [Example T232, 8-(4-(sec-butyl)-2-chlorophenyl)-6-(1-methylcyclopropoxy)-9-((4-methylpyridin-2-yl)methyl)-9H-purine], with over 1580 nM; and `Cc1cnc(Cn2c(-c3ccc(OCCN4CC[C@@H](O)C4)cc3Cl)nc3c(OC4(C)CC4)ncnc32)s1` [Example T245, (R)-1-(2-(3-chloro-4-(6-(1-methylcyclopropoxy)-9-((5-methylthiazol-2-yl)methyl)-9H-purin-8-yl)phenoxy)ethyl)pyrrolidin-3-ol], with 631 nM.

The same assay, now with this note: Homo sapiens, DLD-1, DLD-1 BRCA2 −/− cells; mean; read-out: POLQ PD Prolif Lumin BRCA2 −/− mean pIC50 (converted).
For the compound `Cc1nnc(Cn2c(-c3ccc(CC(N)=O)cc3Cl)nc3c(OC4(C)CC4)ncnc32)s1` [Example T1, 2-(3-chloro-4-(9-((5-methyl-1,3,4-thiadiazol-2-yl)methyl)-6-(1-methylcyclopropoxy)-9H-purin-8-yl)phenyl)acetamide], the IC50 is over 10000 nM.
Regarding `CC1(Oc2ncnc3c2nc(-c2ccc(CC(N)=O)cc2Cl)n3Cc2cc(C#N)ccc2F)CC1` [Example T77, 2-(3-chloro-4-(9-(5-cyano-2-fluorobenzyl)-6-(1-methylcyclopropoxy)-9H-purin-8-yl)phenyl)acetamide], the IC50 was 158 nM.
As to `C[C@H](Oc1cccc(-c2nc3c(OC4(C)CC4)ncnc3n2Cc2cccc(Cl)c2)c1Cl)C(=O)O` [Example T90, (S)-2-(2-chloro-3-(9-(3-chlorobenzyl)-6-(1-methylcyclopropoxy)-9H-purin-8-yl)phenoxy)propanoic acid], the IC50 was 2000 nM.
Still for that read-out and setting: then `COc1cnnc(Cn2c(-c3ccc(CC(N)=O)cc3Cl)nc3c(OC4(C)CC4)ncnc32)c1` [Example T22, 2-(3-chloro-4-(9-((5-methoxypyridazin-3-yl)methyl)-6-(1-methylcyclopropoxy)-9H-purin-8-yl)phenyl)acetamide], with 3980 nM.

The assay is the same for the next values; noted with them: Homo sapiens, DLD-1, DLD-1 BRCA2 −/−, mean; read-out: POLQ PD Prolif Lumin BRCA2 −/− mean pIC50 (converted).
For the compound `CCOc1ccc(Cl)cc1Cn1c(-c2ccc(OCCC(C)C(=O)O)cc2Cl)nc2c(OC3(C)CC3)ncnc21` (racemic) [Example U59, 4-(3-chloro-4-(9-(5-chloro-2-ethoxybenzyl)-6-(1-methylcyclopropoxy)-9H-purin-8-yl)phenoxy)-2-methylbutanoic acid], the IC50 was 63.1 nM.

Still in this assay, the particulars now being: Homo sapiens, DLD-1, first proliferation column (c5), taken as DLD-1 BRCA2-/-; read-out: POLQ PD Prolif Lumin (converted).
For the compound `CC1(Oc2ncnc3c2nc(-c2cccc(OCCCC(=O)NS(C)(=O)=O)c2Cl)n3Cc2cccc(Cl)c2)CC1` [Example T325, 4-(2-chloro-3-(9-(3-chlorobenzyl)-6-(1-methylcyclopropoxy)-9H-purin-8-yl)phenoxy)-N-(methylsulfonyl)butanamide], the IC50 is 316 nM.
As for `Cc1ccnc(Cn2c(-c3ccc(C(=O)NC4CC(O)C4)cc3Cl)nc3c(OC4(C)CC4)ncnc32)c1` (centres unmarked) [Example T319, 3-chloro-N-(3-hydroxycyclobutyl)-4-(6-(1-methylcyclopropoxy)-9-((4-methylpyridin-2-yl)methyl)-9H-purin-8-yl)benzamide], the IC50 was 2510 nM.
With `CC1(Oc2ncnc3c2nc(-c2ccc(OCCOCCC(=O)O)cc2Cl)n3Cc2cccc(Cl)c2)CC1` [Example T303, 3-(2-(3-chloro-4-(9-(3-chlorobenzyl)-6-(1-methylcyclopropoxy)-9H-purin-8-yl)phenoxy)ethoxy)propanoic acid], the IC50 was 126 nM.

Staying with this assay, now noted: Homo sapiens, DLD-1, first proliferation column (c5); DLD-1 BRCA2-/-; read-out: POLQ PD Prolif Lumin (converted).
For `Cc1ccnc(Cn2c(-c3ccc(N4CC5CC4CCN5)cc3Cl)nc3c(OC4(C)CC4)ncnc32)c1` (racemic) [Example T491, 8-(4-(2,6-diazabicyclo[3.2.1]octan-6-yl)-2-chlorophenyl)-6-(1-methylcyclopropoxy)-9-((4-methylpyridin-2-yl)methyl)-9H-purine], the IC50 is 501 nM.
Take `Cc1cccc(Cn2c(-c3ccc(OCCC(C)C(=O)O)cc3Cl)nc3c(OC4(C)CC4)ncnc32)c1C` (racemic) [Example T570, 4-(3-chloro-4-(9-(2,3-dimethylbenzyl)-6-(1-methylcyclopropoxy)-9H-purin-8-yl)phenoxy)-2-methylbutanoic acid]: the IC50 was 398 nM.
For the compound `CC1(Oc2ncnc3c2nc(-c2cccc(OCCCC(C)(C)C(=O)O)c2Cl)n3Cc2cccc(Cl)c2)CC1` [Example T565, 5-(2-chloro-3-(9-(3-chlorobenzyl)-6-(1-methylcyclopropoxy)-9H-purin-8-yl)phenoxy)-2,2-dimethylpentanoic acid], the IC50 was 100 nM.
On to `Cc1cccc(Cn2c(-c3ccc(OCCC(=O)O)cc3Cl)nc3c(OC4(C)CC4)ncnc32)c1` [Example T167, 3-(3-chloro-4-(9-(3-methylbenzyl)-6-(1-methylcyclopropoxy)-9H-purin-8-yl)phenoxy)propanoic acid], for which the IC50 is 794 nM.
On to `Cc1ccnc(Cn2c(-c3ccc(CC(=O)NCC(F)F)cc3Cl)nc3c(OC4(C)CC4)ncnc32)c1` [Example T165, 2-(3-chloro-4-(6-(1-methylcyclopropoxy)-9-((4-methylpyridin-2-yl)methyl)-9H-purin-8-yl)phenyl)-N-(2,2-difluoroethyl)acetamide], for which the IC50 was 100 nM.

Staying with this assay, now noted: Homo sapiens, DLD-1, first proliferation column; DLD-1 BRCA2-/-; read-out: POLQ PD Prolif Lumin (converted).
Consider `Cc1ccnc(Cn2c(-c3ccc(CC(=O)N4CC[C@](C)(O)C4)cc3Cl)nc3c(OC4(C)CC4)ncnc32)c1` [Example T575, (S)-2-(3-chloro-4-(6-(1-methylcyclopropoxy)-9-((4-methylpyridin-2-yl)methyl)-9H-purin-8-yl)phenyl)-1-(3-hydroxy-3-methylpyrrolidin-1-yl)ethan-1-one], for which the IC50 is 316 nM.
Still for that read-out and setting: the result for `Cc1ccnc(Cn2c(-c3ccc(C(=O)N4CC(N5CCCC5)C4)cc3Cl)nc3c(OC4(C)CC4)ncnc32)c1` [Example T602, (3-chloro-4-(6-(1-methylcyclopropoxy)-9-((4-methylpyridin-2-yl)methyl)-9H-purin-8-yl)phenyl)(3-(pyrrolidin-1-yl)azetidin-1-yl)methanone] reads 1260 nM; that for `Cc1ccnc(Cn2c(-c3ccc(OCC(=O)N4CC[C@@](C)(O)C4)cc3Cl)nc3c(OC4(C)CC4)ncnc32)c1` [Example T581, (R)-2-(3-chloro-4-(6-(1-methylcyclopropoxy)-9-((4-methylpyridin-2-yl)methyl)-9H-purin-8-yl)phenoxy)-1-(3-hydroxy-3-methylpyrrolidin-1-yl)ethan-1-one], 501 nM; that for `CC(CCOc1ccc(-c2nc3c(OC4(C)CC4)ncnc3n2Cc2cccc(C3CC3)c2)c(Cl)c1)C(=O)O` (racemic) [Example T601, 4-(3-chloro-4-(9-(3-cyclopropylbenzyl)-6-(1-methylcyclopropoxy)-9H-purin-8-yl)phenoxy)-2-methylbutanoic acid], 794 nM.

Staying with this assay, now noted: Homo sapiens, DLD-1, proliferation, luminescence, taken as DLD-1 BRCA2-/-; read-out: POLQ PD Prolif Lumin (converted).
For `COc1cccc(Cn2c(-c3ccc(OCCC(C)C(=O)O)cc3Cl)nc3c(OC4(C)CC4)ncnc32)c1` (single isomer, unassigned) [Example T455, 4-(3-chloro-4-(9-(3-methoxybenzyl)-6-(1-methylcyclopropoxy)-9H-purin-8-yl)phenoxy)-2-methylbutanoic acid], the IC50 is 1580 nM.
Turning to `COc1cc(Cl)cc(Cn2c(-c3ccc(OCCC(C)C(=O)O)cc3Cl)nc3c(OC4(C)CC4)ncnc32)c1` (single isomer, unassigned) [Example T446, 4-(3-chloro-4-(9-(3-chloro-5-methoxybenzyl)-6-(1-methylcyclopropoxy)-9H-purin-8-yl)phenoxy)-2-methylbutanoic acid], the IC50 was 316 nM.
For `Cc1ccnc(Cn2c(-c3ccc(C(=O)N4C[C@@H]5C[C@H]4CO5)cc3Cl)nc3c(OC4(C)CC4)ncnc32)c1` [Example T416, ((1S,4S)-2-oxa-5-azabicyclo[2.2.1]heptan-5-yl)(3-chloro-4-(6-(1-methylcyclopropoxy)-9-((4-methylpyridin-2-yl)methyl)-9H-purin-8-yl)phenyl)methanone], the IC50 is 1580 nM.
As for `Cc1ccnc(Cn2c(-c3ccc(OCC(=O)N4CC[C@H](F)C4)cc3Cl)nc3c(OC4(C)CC4)ncnc32)c1` [Example T420, (S)-2-(3-chloro-4-(6-(1-methylcyclopropoxy)-9-((4-methylpyridin-2-yl)methyl)-9H-purin-8-yl)phenoxy)-1-(3-fluoropyrrolidin-1-yl)ethan-1-one], the IC50 was 251 nM.
